In patent publication US20230250066A1, “HERBICIDAL CINNOLINE DERIVATIVES” (SYNGENTA CROP PROTECTION AG, priority 2020, published 2023):

Legend:
Format in all cases: in vivo
[1] = system: Amaranthus retoflexus (AMARE); experiment: Pre-emergence herbicidal test; conditions: 1000 g/ha, evaluated after 13 days
[2] = system: Setaria faberi (SETFA); experiment: Pre-emergence herbicidal test; conditions: 1000 g/ha, evaluated after 13 days
[3] = system: Echinochloa crus-galli (ECHCG); experiment: Pre-emergence herbicidal test; conditions: 1000 g/ha, evaluated after 13 days
[4] = system: Ipomoea hederacea (IPOHE); experiment: Pre-emergence herbicidal test; conditions: 1000 g/ha, evaluated after 13 days
[5] = system: Abutilon theophrasti (ABUTH); experiment: Pre-emergence herbicidal test; conditions: 1000 g/ha, evaluated after 13 days
[6] = system: Zea mays (ZEAMX); experiment: Pre-emergence herbicidal test; conditions: 1000 g/ha, evaluated after 13 days
[7] = system: Abutilon theophrasti (ABUTH); experiment: Post-emergence herbicidal test; conditions: 1000 g/ha unless otherwise stated, evaluated after 13 days
Summary of the method: (§1)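 Scores on a five-point scale: 5=81-100%, 4=61-80%, 3=41-60%, 2=21-40%, 1=10-20%, 0=0% damage. These are assessed 13 days after spraying at 1000 g/ha unless stated.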

[8] = system: Amaranthus retoflexus (AMARE); experiment: Post-emergence herbicidal test; conditions: 1000 g/ha unless otherwise stated, evaluated after 13 days
Summary of the method: as §1

[9] = system: Echinochloa crus-galli (ECHCG); experiment: Post-emergence herbicidal test; conditions: 1000 g/ha unless otherwise stated, evaluated after 13 days
Summary of the method: as §1

[10] = system: Ipomoea hederacea (IPOHE); experiment: Post-emergence herbicidal test; conditions: 1000 g/ha unless otherwise stated, evaluated after 13 days
Summary of the method: as §1

[11] = system: Setaria faberi (SETFA); experiment: Post-emergence herbicidal test; conditions: 1000 g/ha unless otherwise stated, evaluated after 13 days
Summary of the method: as §1

[12] = system: Zea mays (ZEAMX); experiment: Post-emergence herbicidal test; conditions: 1000 g/ha unless otherwise stated, evaluated after 13 days
Summary of the method: as §1

SMILES	percentage damage caused to the plant, five-point scale, AMARE [1]	percentage damage caused to the plant, five-point scale, SETFA [2]	percentage damage caused to the plant, five-point scale, ECHCG [3]	percentage damage caused to the plant, five-point scale, IPOHE [4]	percentage damage caused to the plant, five-point scale, ABUTH [5]	percentage damage caused to the plant, five-point scale, ZEAMX [6]	percentage damage caused to the plant, ABUTH (five-point scale) [7]	percentage damage caused to the plant, AMARE (five-point scale) [8]	percentage damage caused to the plant, ECHCG (five-point scale) [9]	percentage damage caused to the plant, IPOHE (five-point scale) [10]	percentage damage caused to the plant, SETFA (five-point scale) [11]	percentage damage caused to the plant, ZEAMX (five-point scale) [12]
CS(=O)(=O)c1cccc2c1c(=O)c(C(=O)OCCCc1ccccc1)nn2-c1ccc(OC(F)(F)F)cc1 [Compound P84, 3-phenylpropyl 5-methylsulfonyl-4-oxo-1-[4-(trifluoromethoxy)phenyl]cinnoline-3-carboxylate]	0 (0=0%)	4 (4=61-80%)	3 (3=41-60%)	0 (0=0%)	0 (0=0%)	0 (0=0%)	1 (1=10-20%)	0 (0=0%)	2 (2=21-40%)	1 (1=10-20%)	4 (4=61-80%)	0 (0=0%)
COC(C)(C)CCOC(=O)c1nn(-c2ccc(OC(F)(F)F)cc2)c2cccc(S(C)(=O)=O)c2c1=O [Compound P85, (3-methoxy-3-methyl-butyl) 5-methysulfonyl-4-oxo-1-[4-(trifluoromethoxy)phenyl]cinnoline-3-carboxylate]	0 (0=0%)	4 (4=61-80%)	4 (4=61-80%)	0 (0=0%)	0 (0=0%)	0 (0=0%)	1 (1=10-20%)	1 (1=10-20%)	3 (3=41-60%)	0 (0=0%)	4 (4=61-80%)	1 (1=10-20%)
CC(C)(C)CCOC(=O)c1nn(-c2ccc(OC(F)(F)F)cc2)c2cccc(S(C)(=O)=O)c2c1=O [Compound P86, 3,3-dimethylbutyl 5-methylsulfonyl-4-oxo-1-[4-(trifluoromethoxy)phenyl]cinnoline-3-carboxylate]	0 (0=0%)	4 (4=61-80%)	5 (5=81-100%)	0 (0=0%)	1 (1=10-20%)	1 (1=10-20%)	0 (0=0%)	0 (0=0%)	4 (4=61-80%)	0 (0=0%)	4 (4=61-80%)	0 (0=0%)
CS(=O)(=O)c1cccc2c1c(=O)c(C(=O)OCCC1CCCCC1)nn2-c1ccc(OC(F)(F)F)cc1 [Compound P87, 2-cyclohexylethyl 5-methylsulfonyl-4-oxo-1-[4-(trifluoromethoxy)phenyl]cinnoline-3-carboxylate]	0 (0=0%)	3 (3=41-60%)	1 (1=10-20%)	1 (1=10-20%)	1 (1=10-20%)	1 (1=10-20%)	1 (1=10-20%)	1 (1=10-20%)	1 (1=10-20%)	0 (0=0%)	1 (1=10-20%)	0 (0=0%)
CC(C)CCOC(=O)c1nn(-c2ccc(OC(F)(F)F)cc2)c2cccc(S(C)(=O)=O)c2c1=O [Compound P88, isopentyl 5-methylsulfonyl-4-oxo-1-[4-(trifluoromethoxy)phenyl]cinnoline-3-carboxylate]	0 (0=0%)	5 (5=81-100%)	4 (4=61-80%)	0 (0=0%)	0 (0=0%)	0 (0=0%)	1 (1=10-20%)	0 (0=0%)	3 (3=41-60%)	0 (0=0%)	4 (4=61-80%)	0 (0=0%)
CS(=O)(=O)c1cccc2c1c(=O)c(C(=O)OCCCCOCc1ccccc1)nn2-c1ccc(OC(F)(F)F)cc1 [Compound P89, 4-benzyloxybutyl 5-methylsulfonyl-4-oxo-1-[4-(trifluoromethoxy)phenyl]cinnoline-3-carboxylate]	0 (0=0%)	4 (4=61-80%)	4 (4=61-80%)	0 (0=0%)	0 (0=0%)	0 (0=0%)	0 (0=0%)	0 (0=0%)	3 (3=41-60%)	0 (0=0%)	4 (4=61-80%)	0 (0=0%)
CCCCCCCCSC(=O)c1nn(-c2ccc(OC(F)(F)F)cc2)c2cccc(S(C)(=O)=O)c2c1=O [Compound P90, S-octyl 5-methylsulfonyl-4-oxo-1-[4-(trifluoromethoxy)phenyl]cinnoline-3-carbothioate]	0 (0=0%)	4 (4=61-80%)	3 (3=41-60%)	0 (0=0%)	0 (0=0%)	0 (0=0%)	0 (0=0%)	0 (0=0%)	3 (3=41-60%)	1 (1=10-20%)	4 (4=61-80%)	1 (1=10-20%)
CC(C)CCSC(=O)c1nn(-c2ccc(OC(F)(F)F)cc2)c2cccc(S(C)(=O)=O)c2c1=O [Compound P91, S-isopentyl 5-methylsulfonyl-4-oxo-1-[4-(trifluoromethoxy)phenyl]cinnoline-3-carbothioate]	0 (0=0%)	4 (4=61-80%)	3 (3=41-60%)	0 (0=0%)	0 (0=0%)	0 (0=0%)	1 (1=10-20%)	0 (0=0%)	3 (3=41-60%)	1 (1=10-20%)	4 (4=61-80%)	1 (1=10-20%)
CS(=O)(=O)c1cccc2c1c(=O)c(C(=O)SCCCc1ccccc1)nn2-c1ccc(OC(F)(F)F)cc1 [Compound P92, S-(3-phenylpropyl) 5-methyslulfonyl-4-oxo-1-[4-(trifluoromethoxy)phenyl]cinnoline-3-carbothioate]	1 (1=10-20%)	3 (3=41-60%)	1 (1=10-20%)	0 (0=0%)	1 (1=10-20%)	0 (0=0%)	2 (2=21-40%)	1 (1=10-20%)	3 (3=41-60%)	2 (2=21-40%)	3 (3=41-60%)	1 (1=10-20%)
